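Method: 48-hour compound exposure of cells in 96-well plates, five concentrations, linear interpolation of endpoints. GI50: concentration for 50% inhibition of growth.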 Active and inactive are the calls of the source. Rule as the data show it: active = GI50 up to about 1.1 µM and inactive = higher.
Columns and labels:
Assay in all cases: NCI tumour cell line growth inhibition, 48 h
[1] = system: A498
[2] = system: ACHN
[3] = system: BT-549
[4] = system: DU-145
[5] = system: HOP-62
[6] = system: HT-29
[7] = system: IGROV-1
[8] = system: MCF7
[9] = system: MDA-MB-435
[10] = system: Malme-3M
[11] = system: NCI-H226
[12] = system: NCI-H23
[13] = system: OVCAR-3
[14] = system: SF-295
[15] = system: SF-539
[16] = system: SK-MEL-28
[17] = system: SK-MEL-2
[18] = system: SW-620
[19] = system: U-251
[20] = system: UO-31

Compound | GI50 [1] | GI50 [2] | GI50 [3] | GI50 [4] | GI50 [5] | GI50 [6] | GI50 [7] | GI50 [8] | GI50 [9] | GI50 [10] | GI50 [11] | GI50 [12] | GI50 [13] | GI50 [14] | GI50 [15] | GI50 [16] | GI50 [17] | GI50 [18] | GI50 [19] | GI50 [20]
O=c1[nH]/c(=C/c2cccs2)c(=O)[nH]/c1=C/c1ccc(OCc2ccccc2)cn1 | 0.0374 µM (active) | 3.24 µM (inactive) | 0.0239 µM (active) | 0.0716 µM (active) | 0.033 µM (active) | 0.124 µM (active) | 0.219 µM (active) | 0.0422 µM (active) | < 0.01 µM (active) | 0.0197 µM (active) | 0.312 µM (active) | 0.0398 µM (active) | < 0.0146 µM (active) | 0.0206 µM (active) | 0.123 µM (active) | 3.3 µM (inactive) | 0.0561 µM (active) | 0.0361 µM (active) | 0.0631 µM (active) | 0.0207 µM (active)
O=C(C/N=C(\CN(c1ccccc1)c1ccccc1)Oc1ccc(Cl)cc1Cl)n1ccnc1 | > 100 µM (inactive) | > 100 µM (inactive) | > 100 µM (inactive) | > 100 µM (inactive) | > 100 µM (inactive) | > 100 µM (inactive) | > 100 µM (inactive) | > 100 µM (inactive) | > 100 µM (inactive) | > 100 µM (inactive) | > 100 µM (inactive) | > 100 µM (inactive) | > 100 µM (inactive) | > 100 µM (inactive) | > 100 µM (inactive) | > 100 µM (inactive) | > 100 µM (inactive) | > 100 µM (inactive) | > 100 µM (inactive) | > 100 µM (inactive)
Nc1ccc2c(c1)C(=O)c1ccccc1-2 | 49 µM (inactive) | 72.9 µM (inactive) | 34 µM (inactive) | > 100 µM (inactive) | > 100 µM (inactive) | > 100 µM (inactive) | > 100 µM (inactive) | > 100 µM (inactive) | > 100 µM (inactive) | > 100 µM (inactive) | > 100 µM (inactive) | > 100 µM (inactive) | 55.7 µM (inactive) | > 100 µM (inactive) | > 100 µM (inactive) | > 100 µM (inactive) | > 100 µM (inactive) | 68.1 µM (inactive) | > 100 µM (inactive) | 68.2 µM (inactive)
N#Cc1c(-c2ccccc2)nc(-c2ccccc2)sc1=S | > 100 µM (inactive) | > 100 µM (inactive) | > 100 µM (inactive) | > 100 µM (inactive) | > 100 µM (inactive) | > 100 µM (inactive) | > 100 µM (inactive) | > 100 µM (inactive) | > 100 µM (inactive) | > 100 µM (inactive) | > 100 µM (inactive) | > 100 µM (inactive) | > 100 µM (inactive) | > 100 µM (inactive) | > 100 µM (inactive) | > 100 µM (inactive) | > 100 µM (inactive) | > 100 µM (inactive) | > 100 µM (inactive) | > 100 µM (inactive)
Fc1cc(F)c(F)c(S)c1F | 17.5 µM (inactive) | > 100 µM (inactive) | 26 µM (inactive) | > 100 µM (inactive) | > 100 µM (inactive) | 92.9 µM (inactive) | > 100 µM (inactive) | > 100 µM (inactive) | > 100 µM (inactive) | > 100 µM (inactive) | > 100 µM (inactive) | > 100 µM (inactive) | > 100 µM (inactive) | > 100 µM (inactive) | > 100 µM (inactive) | > 100 µM (inactive) | > 100 µM (inactive) | 59.7 µM (inactive) | > 100 µM (inactive) | > 100 µM (inactive)
Cc1ccc(Cc2n[nH]c(=O)n2N2C(=O)c3ccccc3C2=O)cc1 | > 100 µM (inactive) | > 100 µM (inactive) | > 100 µM (inactive) | > 100 µM (inactive) | > 100 µM (inactive) | > 100 µM (inactive) | > 100 µM (inactive) | > 100 µM (inactive) | > 100 µM (inactive) | > 100 µM (inactive) | > 100 µM (inactive) | > 100 µM (inactive) | > 100 µM (inactive) | > 100 µM (inactive) | > 100 µM (inactive) | > 100 µM (inactive) | > 100 µM (inactive) | > 100 µM (inactive) | > 100 µM (inactive) | > 100 µM (inactive)
Cc1ccc(Cc2nnc(S)[nH]2)cc1 | > 100 µM (inactive) | 63.7 µM (inactive) | > 100 µM (inactive) | 70.8 µM (inactive) | 61.9 µM (inactive) | > 100 µM (inactive) | 50.8 µM (inactive) | > 100 µM (inactive) | > 100 µM (inactive) | > 100 µM (inactive) | > 100 µM (inactive) | 81.3 µM (inactive) | > 100 µM (inactive) | 52.2 µM (inactive) | > 100 µM (inactive) | > 100 µM (inactive) | > 100 µM (inactive) | > 100 µM (inactive) | > 100 µM (inactive) | 79.8 µM (inactive)
Nc1nc(N)c(-c2cccc(C(F)(F)F)c2)c(Cc2cccc(C(F)(F)F)c2)n1 | 3.43 µM (inactive) | 2.65 µM (inactive) | 10.2 µM (inactive) | 7.71 µM (inactive) | 6.05 µM (inactive) | 1.18 µM (inactive) | 1.91 µM (inactive) | 3.84 µM (inactive) | 2.96 µM (inactive) | 12.4 µM (inactive) | 10.4 µM (inactive) | 2.01 µM (inactive) | 6.03 µM (inactive) | 1.52 µM (inactive) | 4.41 µM (inactive) | 11.4 µM (inactive) | 7.71 µM (inactive) | 7.33 µM (inactive) | 15.7 µM (inactive) | 6.32 µM (inactive)
COc1cc2c(cc1C)NC(=O)/C2=C/c1c(Cl)[nH]c2cc(C)c(OC)cc12 | 8.73 µM (inactive) | 2.25 µM (inactive) | 1.36 µM (inactive) | 2.36 µM (inactive) | 10.1 µM (inactive) | 4.29 µM (inactive) | 1.32 µM (inactive) | 1.4 µM (inactive) | 2.69 µM (inactive) | 11.5 µM (inactive) | 17.2 µM (inactive) | 1.91 µM (inactive) | 1.94 µM (inactive) | 1.21 µM (inactive) | 0.395 µM (active) | 8.13 µM (inactive) | 8.38 µM (inactive) | 3.64 µM (inactive) | 2.86 µM (inactive) | 10 µM (inactive)
C=CC(=O)NCCC(=O)OCn1cc(F)c(=O)[nH]c1=O | 0.456 µM (active) | 5.02 µM (inactive) | > 100 µM (inactive) | 3.64 µM (inactive) | 4.98 µM (inactive) | 4.12 µM (inactive) | 4.33 µM (inactive) | 1.2 µM (inactive) | 5.32 µM (inactive) | 4.59 µM (inactive) | 13.3 µM (inactive) | 7.01 µM (inactive) | 10.5 µM (inactive) | 15.5 µM (inactive) | 2.65 µM (inactive) | 32.2 µM (inactive) | 7.93 µM (inactive) | 17.2 µM (inactive) | 18 µM (inactive) | 2.33 µM (inactive)
COc1ccc(/C=N/n2c(Cc3ccc(Cl)cc3)n[nH]c2=O)c(OC)c1 | 20.4 µM (inactive) | 44.7 µM (inactive) | 35.2 µM (inactive) | 67.8 µM (inactive) | > 100 µM (inactive) | 24.9 µM (inactive) | 20.8 µM (inactive) | 33.6 µM (inactive) | 36.8 µM (inactive) | > 100 µM (inactive) | 29.9 µM (inactive) | 29.4 µM (inactive) | 35.2 µM (inactive) | 19 µM (inactive) | > 100 µM (inactive) | 80 µM (inactive) | 53 µM (inactive) | > 100 µM (inactive) | 32.2 µM (inactive) | > 100 µM (inactive)
CCC(=S)N(C)O | 65.9 µM (inactive) | 35.2 µM (inactive) | > 100 µM (inactive) | 27.6 µM (inactive) | 43.5 µM (inactive) | 0.839 µM (active) | 6.93 µM (inactive) | 3.71 µM (inactive) | 15.6 µM (inactive) | 53.5 µM (inactive) | 54.7 µM (inactive) | 10.1 µM (inactive) | 3.08 µM (inactive) | 34.2 µM (inactive) | 39.3 µM (inactive) | 57.4 µM (inactive) | 29.4 µM (inactive) | 4.09 µM (inactive) | 23.4 µM (inactive) | 26.8 µM (inactive)
COc1cc(/C=C2\Cc3cc(OC)c(OC)cc3C2=O)cc(OC)c1 | 36.8 µM (inactive) | > 58.2 µM (inactive) | 15.3 µM (inactive) | > 100 µM (inactive) | 15.8 µM (inactive) | > 100 µM (inactive) | 5.93 µM (inactive) | > 86.5 µM (inactive) | 1.04 µM (active) | 15.8 µM (inactive) | > 100 µM (inactive) | 17.6 µM (inactive) | > 92.3 µM (inactive) | 4.2 µM (inactive) | 13.1 µM (inactive) | > 100 µM (inactive) | > 60 µM (inactive) | > 100 µM (inactive) | 35.8 µM (inactive) | > 100 µM (inactive)
O=C1/C(=C/c2ccccc2)CN(C(=O)CCN2CCCC2)C/C1=C\c1ccccc1 | 4.17 µM (inactive) | 1.98 µM (inactive) | 1.56 µM (inactive) | 4.48 µM (inactive) | 7.31 µM (inactive) | 0.867 µM (active) | 2.67 µM (inactive) | 0.64 µM (active) | 1.28 µM (inactive) | 3.03 µM (inactive) | 6 µM (inactive) | 1.8 µM (inactive) | 2.08 µM (inactive) | 1.09 µM (active) | 1.85 µM (inactive) | 1.62 µM (inactive) | 2.77 µM (inactive) | 0.23 µM (active) | 0.794 µM (active) | 2.77 µM (inactive)
